According to patent EP4775582A1, “MACROCYCLIC COMPOUND AND ANTIBODY-DRUG CONJUGATE THEREOF” (Genfleet Therapeutics (Shanghai) Inc., priority 2023, dated 2025):
Read-outs that look alike come from different tables or passages of the source.

Assays:
Format in all cases: cell-based, human
H441 p-ERK = assay: Cell p-ERK assay (HTRF), NCI-H441 cells; conditions: NCI-H441 cells (KRAS G12V), 3 h incubation
Procedure: (§1) The cells were digested with trypsin (containing EDTA), collected in their corresponding complete media, and counted. The density of the cell suspensions was adjusted with their corresponding complete media, and 10000 AsPC-1 cells or 20000 NCI-H441 cells per well were seeded into a 96-well cell culture plate, with the volume of the medium in each well being 80 µL. The cell culture plate was incubated in an incubator at 37 °C with 5% CO2 overnight. […] On the day after cell seeding, 20 µL of the 5× compound stock solution was added to each cell culture well. […] In addition to the compound-treated wells described above, cell-containing DMSO control wells were also set. A complete medium containing 0.5% DMSO was added at 20 µL/well. After the mixture was well mixed, the culture plate was incubated in the incubator at 37 °C with 5% CO2 for another 3 h. The medium was then removed from the culture wells, and 50 µL of cell lysis buffer (from Advance ERK phospho-T202/Y204 kit) was added to each well. The mixture was well mixed and incubated for 30 min. Then, 16 µL of the mixture was transferred to a white-bottomed, opaque 96-well assay plate, and separately, 16 µL of cell lysis buffer was added to additional wells (serving as blank wells) in the assay plate. After the transfer was completed, 4 µL of p-ERK HTRF antibody mixture (from Advance ERK phospho-T202/Y204 kit) was added to each well of the assay plate, followed by a 4-hour incubation. […] Using an XLfit software, the IR (%) values were plotted against the logarithm of the compound concentrations, and the dose-response curves were fitted using the four-parameter method to calculate the IC50 values.

AsPC-1 p-ERK = assay: Cell p-ERK assay (HTRF), AsPC-1 cells
Procedure: as §1

AsPC-1 cells = assay: 3D cell proliferation assay (CellTiter Glo-3D), AsPC-1
Procedure: (§2) The cells were digested with trypsin (containing EDTA), collected in their respective low-serum complete media containing 2% FBS (for MIA Paca-2 cell culture: DMEM + 2% FBS + 0.5% Horse serum + 1% PS), and counted. After the cell density was adjusted as required, 200 MIA PaCa-2 cells, 800 AsPC-1 cells, 800 NCI-H441 cells, or 400 NCI-H1975 cells per well were seeded into a 384-well cell culture plate, with the volume of the medium in each well being 45 µL. The cell culture plate was incubated in an incubator at 37 °C with 5% CO2 overnight. […] On the day after cell seeding, 5 µL of the 10× compound stock solution was added to each cell culture well. […] In addition to the compound-treated wells described above, cell-containing DMSO control wells (with 5 µL of the complete medium containing 1% DMSO added to each well) and cell-free medium control wells (containing 50 µL of the complete medium with 2% FBS) were also set. The culture plate was incubated in an incubator at 37 °C with 5% CO2 for another 5 days, and then 30 µL of CellTiter-Glo working solution was added to each well. The mixture was well mixed, incubated for 30 min, left to stand at room temperature for 30 min, and then transferred to a white-bottomed, opaque 384-well assay plate at 40 µL/well. […] Using an XLfit software, the IR (%) values were plotted against the logarithm of the compound concentrations, and the dose-response curves were fitted using the four-parameter method to calculate the IC50 values.

NCI-H441 cells = assay: 3D cell proliferation assay (CellTiter Glo-3D), NCI-H441; conditions: NCI-H441 cells (KRAS G12V), 2% FBS, 5 days, read-out: H441 AP IC50
Procedure: as §2

[1] = Homo sapiens, ASPC1, 3 h, read-out: AsPC-1 p-ERK IC50(nM)
[2] = Homo sapiens, ASPC1, 120 h, read-out: AsPC-1 AP IC50(nM)
[3] = AsPC-1 cells (KRAS G12D), 3 h incubation, read-out: AsPC-1 p-ERK IC50
[4] = AsPC-1 cells (KRAS G12D), 3D, 2% FBS, 5 days, read-out: AsPC-1 AP IC50

Compound	IC50 (H441 p-ERK; Homo sapiens) [nM]	IC50 (AsPC-1 p-ERK; [1]) [nM]	IC50 (AsPC-1 cells; [2]) [nM]	IC50 (NCI-H441 cells; Homo sapiens, 120 h) [nM]	IC50 (H441 p-ERK) [nM]	IC50 (AsPC-1 p-ERK; [3]) [nM]	IC50 (AsPC-1 cells; [4]) [nM]	IC50 (NCI-H441 cells) [nM]	IC50 (AsPC-1 p-ERK; Homo sapiens, ASPC1, AsPC-1 cells (KRAS G12D), 3 h incubation, read-out: AsPC-1 p-ERK IC50) [nM]	IC50 (AsPC-1 cells; Homo sapiens, ASPC1, 120 h, AsPC-1 cells (KRAS G12D), 3D, 2% FBS, 5 days, read-out: AsPC-1 AP IC50) [nM]
CCn1c(-c2cc(C#CCN3CCS(=O)(=O)CC3)cnc2[C@H](C)OC)c2c3cc(ccc31)-c1csc(n1)C[C@H](NC(=O)[C@@H]1[C@@H](C)[C@H]1CO)C(=O)N1CCC[C@H](N1)C(=O)OCC(C)(C)C2 (atropisomer, axis not shown; (Ra)) [Compound Z7-1, (1R,2R,3S)-N-((6^3S,4S,Z)-(Ra)-1^2-(5-(3-(1,1-dioxidothiomorpholino)prop-1-yn-1-yl)-2-((S)-1-methoxyethyl)pyridin-3-yl)-1^1-ethyl-10,10-dimethyl-5,7-dioxo-6^1,6^2,6^3,6^4,6^5,6^6-hexahydro-1^1H-8-oxa-2(4,2)-thiazola-1(5,3)-indola-6(1,3)-pyridazinacycloundecaphane-4-yl)-2-(hydroxymethyl)-3-methylcyclopropane-1-carboxamide]	0.5	0.51	0.52	0.32	–	–	–	–	–	–
CCn1c(-c2cc(C#CCN3CCC(N)(C#N)CC3)cnc2[C@H](C)OC)c2c3cc(ccc31)-c1csc(n1)C[C@H](NC(=O)[C@H]1[C@@H]3COC[C@@H]31)C(=O)N1CCC[C@H](N1)C(=O)OCC(C)(C)C2 (atropisomer, axis not shown; (Ra)) [Compound Z51, (1R,5S,6r)-N-((6^3S,4S,Z)-(Ra)-1^2-(5-(3-(4-amino-4-cyanopiperidin-1-yl)prop-1-yn-1-yl)-2-((S)-1-methoxyethyl)-pyridin-3-yl)-1^1-ethyl-10,10-dimethyl-5,7-dioxo-6^1,6^2,6^3,6^4,6^5,6^6-hexahydro-11H-8-oxa-2(4,2)-thiazola-1(5,3)-indola-6(1,3)-pyridazinacycloundecaphane-4-yl)-3-oxabicyclo[3.1.0]hexane-6-carboxamide]	0.18	0.27	0.42	0.28	–	–	–	–	–	–
(6^3S,4S,Z)-(Sa)-1^2-(5-(3-(1,4-oxazepan-4-yl)prop-1-yn-1-yl)-2-((S)-1-methoxyethyl)pyridin-3-yl)-1^1-ethyl-10,10-dimethyl-4-((5-ethyl-5-methyl-4,5-dihydroisoxazol-3-yl)amino)-6^1,6^2,6^3,6^4,6^5,6^6-hexahydro-1^1H-8-oxa-2(4,2)-thiazola-1(5,3)-indola-6(1,3)-pyridazinacycloundecaphane-5,7-dione [Compound Z173-2]	–	–	–	–	0.81	0.86	1.61	1.82	–	–
CCn1c(-c2cc(C#CCN3CCCOCC3)cnc2[C@H](C)OC)c2c3cc(ccc31)-c1csc(n1)C[C@H](NC1=NOC(CC)(CC)C1)C(=O)N1CCC[C@H](N1)C(=O)OCC(C)(C)C2 (atropisomer, axis not shown; (Ra)) [Compound Z279, (6^3S,4S,Z)-(Ra)-1^2-(5-(3-(1,4-oxazepan-4-yl)prop-1-yn-1-yl)-2-((S)-1-methoxyethyl)pyridin-3-yl)-1^1-ethyl-10,10-dimethyl-4-((5,5-diethyl-4,5-dihydroisoxazol-3-yl)amino)-6^1,6^2,6^3,6^4,6^5,6^6-hexahydro-1^1H-8-oxa-2(4,2)-thiazola-1(5,3)-indola-6(1,3)-pyridazinacycloundecaphane-5,7-dione]	1.03	1.83	6.05	3.26	–	–	–	–	–	–
CO[C@@H](C)c1ncc(C#CCN2CCS(=O)(=O)CC2)cc1-c1c2c3cc(ccc3n1CC(C)O)-c1csc(n1)C[C@H](NC(=O)[C@H]1[C@H](C)[C@@H]1C)C(=O)N1CCC[C@H](N1)C(=O)OCC(C)(C)C2 (atropisomer, axis not shown; (Ra)) [Compound Z3, (1r,2R,3S)-N-((6^3S,4S,Z)-(Ra)-1^2-(5-(3-(1,1-dioxidothiomorpholino)prop-1-yn-1-yl)-2-((S)-1-methoxyethyl)pyridin-3-yl)-1^1-(2-hydroxypropyl)-10,10-dimethyl-5,7-dioxo-6,6',6',6^46^5,6^6-hexahydro-1^1H-8-oxa-2(4,2)-thiazola-1(5,3)-indola-6(1,3)-pyridazinacycloundecaphane-4-yl)-2,3-dimethylcyclopropane-1-carboxamide]	–	–	–	–	0.72	0.59	0.18	0.28	–	–
CCn1c(-c2cc(C#CCN3CCC(C(=O)NCCO)CC3)cnc2[C@H](C)OC)c2c3cc(ccc31)-c1csc(n1)C[C@H](NC(=O)[C@H]1[C@H](C)[C@@H]1C)C(=O)N1CCC[C@H](N1)C(=O)OCC(C)(C)C2 (atropisomer, axis not shown; (Ra)) [Compound Z12]	0.15	–	–	0.21	–	–	–	–	0.36	0.44
CCn1c(-c2cc(C#CCN3CCC(C#N)(CO)CC3)cnc2[C@H](C)OC)c2c3cc(ccc31)-c1csc(n1)C[C@H](NC(=O)[C@H]1[C@H](C)[C@@H]1C)C(=O)N1CCC[C@H](N1)C(=O)OCC(C)(C)C2 (atropisomer, axis not shown; (Ra)) [Compound Z23, (1r,2R,3S)-N-((6^3S,4S,Z)-(Ra)-1^2-(5-(3-(4-cyano-4-(hydroxymethyl)piperidin-1-yl)prop-1-yn-1-yl)-2-((S)-1-methoxyethyl)pyridin-3-yl)-1^1-ethyl-10,10-dimethyl-5,7-dioxo-6^1,6^2,6^3,6^4,6^5,6^6-hexahydro-1^1H-8-oxa-2(4,2)-thiazola-1(5,3)-indola-6(1,3)-pyridazinacycloundecaphane-4-yl)-2,3-dimethylcyclopropane-1-carboxamide]	0.1	0.08	0.03	0.06	–	–	–	–	–	–
CCn1c(-c2cc(C#CCN3CCC(C#N)(CO)CC3)cnc2[C@H](C)OC)c2c3cc(ccc31)-c1csc(n1)C[C@H](NC(=O)[C@H]1[C@@H]3COC[C@@H]31)C(=O)N1CCC[C@H](N1)C(=O)OCC(C)(C)C2 (atropisomer, axis not shown; (Ra)) [Compound Z30, (1R,5S,6r)-N-((6^3S,4S,Z)-(Ra)-1^2-(5-(3-(4-cyano-4-(hydroxymethyl)piperidin-1-yl)prop-1-yn-1-yl)-2-((S)-1-methoxyethyl)pyridin-3-yl)-11-ethyl-10,10-dimethyl-5,7-dioxo-6^1,6^2,6^3,6^4,6^5,6^6-hexahydro-1^1H-8-oxa-2(4,2)-thiazola-1(5,3)-indola-6(1,3)-pyridazinacycloundecaphane-4-yl)-3-oxabicyclo[3.1.0]hexane-6-carboxamide]	0.15	0.07	0.07	0.11	–	–	–	–	–	–
CCn1c(-c2cc(C#CCN3CCN(C)CC3)cnc2[C@H](C)OC)c2c3cc(ccc31)-c1csc(n1)C[C@H](NC(=O)[C@H]1[C@@H]3COC[C@@H]31)C(=O)N1CCC[C@H](N1)C(=O)OCC(C)(C)C2 (atropisomer, axis not shown; (Ra)) [Compound Z83, (1R,5S,6r)-N-((6^3S,4S,Z)-1^1-ethyl-(Ra)-1^2-(2-((S)-1-methoxyethyl)-5-(3-(4-methylpiperazin-1-yl)prop-1-yn-1-yl)pyridin-3-yl)-10,10-dimethyl-5,7-dioxo-6^1,6^2,6^3,6^4,6^5,6^6-hexahydro-1^1H-8-oxa-2(4,2)-thiazola-1(5,3)-indola-6(1,3)-pyridazinacycloundecaphane-4-yl)-3-oxabicyclo[3.1.0]hexane-6-carboxamide]	0.42	0.64	0.12	0.09	–	–	–	–	–	–
